Test results as given in PMC9014295 (Frontiers in Pharmacology, 2022).
Entries after “also recorded” stand apart in the source; their conditions may differ.

Legend:
[1] = system: c-fos gene expression in L02 cells; assay: qRT-PCR of c-fos gene expression in L02 cells; type: cell-based, human; settings: β-actin reference
Experimental: (§1) As previously described by [Zhang et al. (2020]), the treated zebrafish larvae liver and human L02 cells were collected for the qRT-PCR analysis. Total RNA were extracted from L02 cells and the dissected liver of larvae by using TRIzol reagent (Sigma–Aldrich, Saint Louis, MO, United States) and synthesized cDNA using M-MLV reverse transcriptase (Promega, M1708). The reaction of qRT-PCR was performed by LightCycler480. The relative mRNA levels were calculated with β-actin as the reference gene using the comparative […] quantization method. The specific primers (5′-3′) for amplification in zebrafish are as follows: fosab (F: TTACCAGCCTTAACGCCGAC, R: TGGACCATCCACTGCAAGTC), β-actin (F: CCGTGACATCAAGGAGAAG, R: ATACCGCAAGATTCCATACC). The primer sequences (5′-3′) for qRT-PCR in L02 cells are as follows: c-fos (F: TACTACCACTCACCCGCAGA, R: GGCCTCCTGTCATGGTCTTC), β-actin (F: CACCATTGGCAATGAGCGGTTC, R: AGGTCTTTGCGGATGTCCACGT).

zebrafish fosab gene = assay: RNA-seq analysis of zebrafish larvae liver (fosab); type: in vivo, Danio rerio; settings: 2 mM; for Fold change of fosab gene (RNA-seq): exposed 3 dpf, collected 6 dpf
Experimental: As previously described ([Han et al., 2018a]), the process of ribonucleic acid sequencing (RNA-seq) analysis was carried out by CapitalBio Corporation (Beijing, China). […] Cytoscape software was employed to map the drug–pathway network.

[2] = cited from earlier work; for Hepatotoxicity compared with erythromycin: ref Björnsson, 2017
[3] = system: zebrafish liver, transgenic Tg (fabp10: dsRed) zebrafish larvae; assay: Visual assessment of liver toxicity in zebrafish; type: in vivo, Danio rerio; settings: exposure 3 dpf for 72 h, imaged at 6 dpf
Experimental: Wild-type AB strain zebrafish (Danio rerio) and transgenic Tg (fabp10: dsRed) zebrafish in this study were reared in a standard laboratory environment with a 14-h light/10-h dark cycle at 28 ± 1°C ([Chen et al., 2019]). As previously described ([Zhang et al., 2020]), 3 days post-fertilization (3 dpf), zebrafish larvae were exposed to compound solutions at different concentrations for 72 h. For visual assessment of liver toxicity in zebrafish, the tested zebrafish larvae were imaged by using a fluorescence microscope to observe the liver phenotype of zebrafish larvae, 20 larvae per group.

human L02 cells [4] = assay: Cell viability of L02 cells by CCK-8 assay; type: cell-based; settings: 24 h, different concentrations
Experimental: As previously described by [Zhang et al. (2020]), the human L02 cells were incubated with each macrolide compounds at different concentrations for 24 h. For cell viability, Cell Counting Kit-8 (CCK-8; Dojindo, CK04) was used by following the manufacturer’s protocol and the absorbance of each well was measured at 450 nm using a microplate reader. For cell toxicity, the level of lactate dehydrogenase (LDH) release was determined by LDH activity assay kits (Dojindo, CK12) according to the manufacturer’s specification, and the absorbance at 490 nm in each well was measured by a microplate reader.

[5] = system: fosab gene expression in zebrafish liver; assay: qRT-PCR of fosab gene expression in zebrafish liver; type: in vivo, Danio rerio; settings: β-actin reference
Experimental: as §1

human L02 cells [6] = assay: LDH release assay in L02 cells; type: cell-based; settings: 24 h, different concentrations
Experimental: As previously described by [Zhang et al. (2020]), the human L02 cells were incubated with each macrolide compounds at different concentrations for 24 h. […] For cell toxicity, the level of lactate dehydrogenase (LDH) release was determined by LDH activity assay kits (Dojindo, CK12) according to the manufacturer’s specification, and the absorbance at 490 nm in each well was measured by a microplate reader.

Row | SMILES | c-fos mRNA level (qRT-PCR) [1] | Effect on fosab mRNA level (RNA-seq, GO enrichment analysis) (zebrafish fosab gene) | Fold change of fosab gene (RNA-seq) (zebrafish fosab gene) | Liver phenotype of zebrafish larvae ([3]; 0.5 mm) | further results
1 | CCC1OC(=O)C(C)C(OC2CC(C)(OC)C(O)C(C)O2)C(C)C(OC2OC(C)CC(N(C)C)C2O)C2(C)CC(C)C(=NC(C)C(O)C1(C)O)O2 (stereo not drawn) [Impurity Q] | significantly upregulated | upregulated significantly | 3.07 |  | 
2 | CCC1OC(=O)C(C)C(OC2CC(C)(OC)C(O)C(C)O2)C(C)C(OC2OC(C)CC(N(C)C)C2O)C(C)(O)CC(C)C2=NC(C)C(O2)C1(C)O (stereo not drawn) [Impurity R] | significantly upregulated; also recorded: moderately lower than azithromycin | upregulated significantly | 2.18 |  | 
3 | CCC1OC(=O)C(C)C(O)C(C)C(OC2OC(C)CC(N(C)C)C2O)C(C)(O)CC(C)CN(C)C(C)C(O)C1(C)O (stereo not drawn) [Impurity J] | significantly upregulated | upregulated significantly | 2.92 |  | 
4 | CC[C@H]1OC(=O)[C@H](C)[C@@H](O[C@H]2C[C@@](C)(OC)[C@@H](O)[C@H](C)O2)[C@H](C)[C@@H](O[C@@H]2O[C@H](C)C[C@H](N(C)C)[C@H]2O)[C@](C)(O)C[C@@H](C)CN(C)[C@H](C)[C@@H](O)[C@]1(C)O [Azithromycin] |  |  |  | hepatomegaly | Hepatotoxicity compared with erythromycin [2]: higher hepatotoxicity than erythromycin; Liver phenotype of zebrafish larvae ([3]; 0.1 mM): no toxicity to zebrafish liver; Liver phenotype of zebrafish larvae ([3]; 1 mm): blackened liver tissue
5 | CC[C@H]1OC(=O)[C@H](C)[C@@H](O[C@H]2C[C@@](C)(OC)[C@@H](O)[C@H](C)O2)[C@H](C)[C@@H](O[C@@H]2O[C@H](C)C[C@H](N(C)C)[C@H]2O)[C@](C)(OC)C[C@@H](C)C(=O)[C@H](C)[C@@H](O)[C@]1(C)O [Clarithromycin] |  |  |  |  | Hepatotoxicity compared with erythromycin [2]: less hepatotoxicity than erythromycin
6 | CCC1OC(=O)C(C)C(OC2CC(C)(OC)C(O)C(C)O2)C(C)C(OC2OC(C)CC(N(C)C)C2O)C(C)(O)CC(C)C(=NO)C(C)C(O)C1(C)O (stereo not drawn) [Impurity S] | did not affect | no significant effect |  |  | Cytotoxicity / cell viability (CCK-8) (human L02 cells [4]): less cytotoxicity
7 | CCC1OC(=O)C(C)C(OC2CC(C)(OC)C(O)C(C)O2)C(C)C(OC2OC(C)CC(N(C)C=O)C2O)C(C)(O)CC(C)CN(C)C(C)C(O)C1(C)O (stereo not drawn) [Impurity F] | did not affect | no significant effect |  | nearly non-toxic to zebrafish liver | Cytotoxicity / cell viability (CCK-8) (human L02 cells [4]): less cytotoxicity; Liver phenotype of zebrafish larvae ([3]; 1 mm): nearly non-toxic to zebrafish liver
8 | CC[C@H]1OC(=O)[C@H](C)C(=O)[C@H](C)[C@@H](O[C@@H]2O[C@H](C)C[C@H](N(C)C)[C@H]2O)[C@](C)(OC)C[C@@H](C)C(=O)[C@H](C)[C@H]2N(CCCCn3cnc(-c4cccnc4)c3)C(=O)O[C@]12C [Telithromycin] | significantly elevated |  |  | a dark coloration and amorphous liver | Liver injury in clinical use ([2]; ref Author Anonymous, 2012): pulled from the market due to severe acute liver injury; fosab mRNA level (qRT-PCR) [5]: significantly elevated; Cytotoxicity / cell viability (CCK-8) (human L02 cells [4]): higher cytotoxicity than azithromycin; Liver phenotype of zebrafish larvae ([3]; 0.1 mM): hepatomegaly; Cytotoxicity (LDH release) (human L02 cells [6]): higher cytotoxicity than azithromycin
9 | CCC1OC(=O)C(C)C(OC2CC(C)(OC)C(O)C(C)O2)C(C)C(OC2OC(C)CC([N+](C)(C)[O-])C2O)C(C)(O)CC(C)CN(C)C(C)C(O)C1(C)O (stereo not drawn) [Impurity L] | significantly upregulated; also recorded: greatest effect | upregulated significantly | 4.10 | liver tissue became black | fosab mRNA level (qRT-PCR) [5]: greatest effect; Liver phenotype of zebrafish larvae ([3]; 0.1 mM): hepatomegaly and caused the liver lost transparency with a brown coloration
10 | CCC1OC(=O)C(C)C(OC2CC(C)(OC)C(O)C(C)O2)C(C)C(OC2OC(C)CC(NC)C2O)C(C)(O)CC(C)CN(C)C(C)C(O)C1(C)O (stereo not drawn) [Impurity I] | significantly upregulated | upregulated significantly | 2.14 |  | 
11 | CC[C@H]1OC(=O)[C@H](C)[C@@H](O[C@H]2C[C@@](C)(OC)[C@@H](O)[C@H](C)O2)[C@H](C)[C@@H](O[C@@H]2O[C@H](C)C[C@H](N(C)C)[C@H]2O)[C@](C)(O)C[C@@H](C)/C(=N\OCOCCOC)[C@H](C)[C@@H](O)[C@]1(C)O [Roxithromycin] |  |  |  |  | Hepatotoxicity compared with erythromycin [2]: less hepatotoxicity than erythromycin
